Where two headings read alike, the source gives them in different places.
Experiments:
CYP3A4 mRNA = experiment: CYP induction, mRNA, primary cultured human hepatocytes; type: in vitro ADME; settings: for fold induction at 48 h, 0.01 µM / fold induction at 48 h, 0.1 µM / fold induction at 48 h, 1 µM / fold induction at 48 h, 3 µM / fold induction at 48 h, 5 µM / fold induction at 48 h, 10 µM: human, primary cultured human hepatocytes, read-out: CYP3A4 mRNA Fold Induction (fold of vehicle control)
CYP3A4 = experiment: CYP induction, in situ catalytic activity, human hepatocytes; type: in vitro ADME
HepG2 cells [1] = experiment: Lysosomal trapping assay (Lyso-ID Red); type: cell-based; settings: HepG2, 0.1, 1.0, and 10.0 μM, up to 72 hr
Procedure: After incubation timepoint, the treated cells were washed and incubated with fluorescent dual color detection reagent for 60 min. Subsequently, the fluorescence was measured with Spectramax ID5. An increase in red signal without significant loss (no more than 30%) of the blue signal indicates the accumulation of test article within the cells arising from an increase in lysosome or lysosome-like vesicles in size and/or number. The assay results were presented as fluorescence fold change for red stain and blue stain individually and were calculated as follows: Fluorescencefoldchange=RelativeFluorescenceUnit(RFU)measuredfortestarticleconcentration/RFUmeasuredforrespectivesolventcontrol
The acceptance criteria for significant lysosomal perturbation was a ≥ 2-fold increase in red fluorescence with no loss of blue fluorescence.

HepG2 cells [2] = experiment: Cytotoxicity MTT assay in HepG2; type: cell-based; settings: 72-hr, 10 to 100 μM
24 receptor targets = experiment: Cellular and nuclear receptor functional assays, agonist and antagonist effect (panel); type: cell-based; settings: 10 μM
Procedure: The purpose of this study was to provide a first step in preliminary safety assessments by providing early identification of potential off-target interactions for the optimization of safety margins. This study was conducted by Eurofins Cerep (France) and Eurofins Discovery (St. Charles, MO). R-VK4-116 was tested in enzyme and uptake assay with 10 enzyme targets (Figs 4 and 5 in S1 File), and cellular and nuclear receptor functional assays with 24 receptor targets (Figs 5 and 6 in S1 File). Compound enzyme inhibition effect was calculated as a % inhibition of control enzyme activity. The cellular agonist effect was calculated as a % of the control response to a known reference agonist for each target, and the cellular antagonist effect was calculated as a % inhibition of the control reference agonist response for each target.

CHEK2 = molecular target: T1, CHEK2 (Homo sapiens, UniProt O96017); experiment: KINOMEscan binding (% Ctrl, Kd)
T1 construct: made in house; host or cells: E. coli BL21-derived host (T7 phage) or HEK-293
Procedure: (§1) Briefly, E. coli host derived from the BL21 strain were grown to log-phase and infected with kinase-tagged T7 phage and incubated with shaking at 32°C until lysis. The lysates were centrifuged and filtered to remove cell debris. The remaining kinases were produced in HEK-293 cells and subsequently tagged with DNA for qPCR detection. Streptavidin-coated magnetic beads were treated with biotinylated small molecule ligands to generate affinity resins for kinase assays. The liganded beads were blocked with excess biotin and washed to remove unbound ligand and to reduce non-specific phage binding. […] Selectivity Score (S-score) was a quantitative measure of compound selectivity. […] The binding constants (Kds) were also determined with a standard dose-response curve using the Hill equation and Levenberg-Marquardt algorithm [24, 25].

MARK3 = molecular target: T2, MARK3 (Homo sapiens, UniProt P27448); experiment: KINOMEscan binding (% Ctrl, Kd)
T2 construct: made in house; host or cells: E. coli BL21-derived host (T7 phage) or HEK-293
Procedure: as §1

[3] = Metabolic stability in hepatocyte; settings: Sprague Dawley, rat, hepatocytes in suspension
Procedure: (§2) CYP3A4 substrate Midazolam (10 μM) was prepared and incubated in the same manner. […] In addition, in vitro half-life (t1/2, min) and intrinsic clearance (CLint, μl/min/10^6 cells) were calculated [10, 11].

rat hepatocytes = experiment: Metabolic stability in hepatocyte; settings: rat hepatocytes
Procedure: as §2

[4] = Metabolic stability in hepatocyte; settings: Beagle, dog, hepatocytes in suspension
Procedure: as §2

dog hepatocytes = experiment: Metabolic stability in hepatocyte; settings: dog hepatocytes
Procedure: as §2

[5] = Stability in the absence of hepatocytes; settings: no hepatocytes
Procedure: as §2

[6] = Metabolic stability in liver microsomes; settings: human, pH 7.4
hERG = hERG (Homo sapiens, UniProt Q12809); experiment: CiPA IonChannelProfiler Cardiac Panel, QPatch
[7] = 11-point curve 0.001 to 10 μM, read-out: binding constant (Kd)
[8] = heat-inactivated liver microsomes

hERG, sequence (Q12809 whole entry): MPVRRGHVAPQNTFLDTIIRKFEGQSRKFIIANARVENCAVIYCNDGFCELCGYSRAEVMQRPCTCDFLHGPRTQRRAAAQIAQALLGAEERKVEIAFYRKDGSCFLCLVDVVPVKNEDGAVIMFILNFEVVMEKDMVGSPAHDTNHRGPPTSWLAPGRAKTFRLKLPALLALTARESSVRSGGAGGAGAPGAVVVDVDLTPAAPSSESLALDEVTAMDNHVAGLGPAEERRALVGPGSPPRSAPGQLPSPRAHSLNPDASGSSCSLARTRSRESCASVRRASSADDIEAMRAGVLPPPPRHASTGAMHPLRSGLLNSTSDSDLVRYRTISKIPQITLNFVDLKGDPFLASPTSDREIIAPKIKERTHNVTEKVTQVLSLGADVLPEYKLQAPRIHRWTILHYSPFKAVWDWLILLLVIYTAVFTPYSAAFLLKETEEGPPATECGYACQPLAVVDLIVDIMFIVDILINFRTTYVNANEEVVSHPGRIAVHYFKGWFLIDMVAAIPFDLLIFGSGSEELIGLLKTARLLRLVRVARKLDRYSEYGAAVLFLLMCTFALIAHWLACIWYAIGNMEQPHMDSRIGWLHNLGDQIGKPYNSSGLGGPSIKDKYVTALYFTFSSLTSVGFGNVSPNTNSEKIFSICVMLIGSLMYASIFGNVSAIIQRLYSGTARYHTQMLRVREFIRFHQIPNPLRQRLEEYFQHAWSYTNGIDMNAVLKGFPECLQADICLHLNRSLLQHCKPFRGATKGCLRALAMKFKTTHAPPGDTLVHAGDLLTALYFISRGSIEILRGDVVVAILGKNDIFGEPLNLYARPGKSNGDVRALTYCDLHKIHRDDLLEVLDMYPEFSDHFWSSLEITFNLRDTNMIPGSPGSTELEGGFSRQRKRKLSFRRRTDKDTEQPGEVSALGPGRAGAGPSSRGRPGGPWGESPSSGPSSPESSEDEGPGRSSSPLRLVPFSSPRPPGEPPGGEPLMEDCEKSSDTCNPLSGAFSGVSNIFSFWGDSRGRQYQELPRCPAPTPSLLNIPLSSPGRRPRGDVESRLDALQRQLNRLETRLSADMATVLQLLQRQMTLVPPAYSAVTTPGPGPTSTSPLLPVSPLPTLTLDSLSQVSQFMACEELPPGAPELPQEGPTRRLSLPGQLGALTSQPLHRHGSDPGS
T1 sequence (O96017 whole entry): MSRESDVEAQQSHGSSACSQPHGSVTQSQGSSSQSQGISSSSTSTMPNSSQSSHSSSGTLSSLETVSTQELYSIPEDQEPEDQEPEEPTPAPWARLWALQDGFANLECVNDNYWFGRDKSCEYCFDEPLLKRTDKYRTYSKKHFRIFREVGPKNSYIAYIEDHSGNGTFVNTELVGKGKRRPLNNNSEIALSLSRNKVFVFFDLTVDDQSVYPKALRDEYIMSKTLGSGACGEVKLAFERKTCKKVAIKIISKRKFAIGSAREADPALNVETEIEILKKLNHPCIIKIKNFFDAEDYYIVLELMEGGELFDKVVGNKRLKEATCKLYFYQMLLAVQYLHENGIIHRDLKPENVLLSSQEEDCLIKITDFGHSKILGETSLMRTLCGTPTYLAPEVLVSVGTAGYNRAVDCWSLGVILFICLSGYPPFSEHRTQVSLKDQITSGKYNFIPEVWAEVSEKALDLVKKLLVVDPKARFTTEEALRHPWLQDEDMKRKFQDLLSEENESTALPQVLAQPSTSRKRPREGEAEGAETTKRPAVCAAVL
T2 sequence (P27448 whole entry): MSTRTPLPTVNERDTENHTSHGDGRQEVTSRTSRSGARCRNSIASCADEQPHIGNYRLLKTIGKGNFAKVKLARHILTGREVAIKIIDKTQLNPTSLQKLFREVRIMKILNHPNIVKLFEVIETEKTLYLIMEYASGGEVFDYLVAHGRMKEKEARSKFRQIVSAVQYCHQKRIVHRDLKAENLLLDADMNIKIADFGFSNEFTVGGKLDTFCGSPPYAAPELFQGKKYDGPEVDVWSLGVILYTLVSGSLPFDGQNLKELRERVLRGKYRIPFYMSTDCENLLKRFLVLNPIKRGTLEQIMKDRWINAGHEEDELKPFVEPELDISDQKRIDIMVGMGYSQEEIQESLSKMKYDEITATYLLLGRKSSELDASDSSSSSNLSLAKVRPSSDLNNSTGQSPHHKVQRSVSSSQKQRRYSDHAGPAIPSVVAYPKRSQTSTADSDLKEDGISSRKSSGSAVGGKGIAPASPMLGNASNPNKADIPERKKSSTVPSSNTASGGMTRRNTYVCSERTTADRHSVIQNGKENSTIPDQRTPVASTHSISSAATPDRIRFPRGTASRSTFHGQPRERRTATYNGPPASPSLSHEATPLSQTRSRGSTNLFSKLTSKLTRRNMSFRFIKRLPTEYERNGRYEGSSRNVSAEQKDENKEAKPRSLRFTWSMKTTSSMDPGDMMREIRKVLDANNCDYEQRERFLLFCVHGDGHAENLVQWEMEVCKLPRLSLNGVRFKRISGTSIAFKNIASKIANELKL

CCc1cc(Cl)c(OC)c(N2CCN(CC(O)CCNC(=O)c3cc4ccccc4[nH]3)CC2)c1 (centres unmarked) [R-VK4-116, N-(4-(4-(3-chloro-5-ethyl-2-methoxyphenyl)piperazin-1-yl)-3-hydroxybutyl)-1H-indole-2-carboxamide]
induction in CYP3A4 mRNA, average (CYP3A4 mRNA; 5 μM, two days, average of hepatocyte lots): 2.9 fold | fold induction at 48 h, 0.01 µM (CYP3A4 mRNA; Lot 336, 0.01 μM): 1.1 ± 0.079 | fold induction at 48 h, 0.1 µM (CYP3A4 mRNA; Lot 336, 0.1 μM): 1.1 ± 0.18 | fold induction at 48 h, 1 µM (CYP3A4 mRNA; Lot 336, 1 μM): 2.3 ± 0.15 | fold induction at 48 h, 3 µM (CYP3A4 mRNA; Lot 336, 3 μM): 3.7 ± 0.56 | fold induction at 48 h, 5 µM (CYP3A4 mRNA; Lot 336, 5 μM): 4 ± 0.78 | fold induction at 48 h, 10 µM (CYP3A4 mRNA; Lot 336, 10 μM): 3.7 ± 0.2 | fold induction at 48 h, 0.01 µM (CYP3A4 mRNA; Lot 348B, 0.01 μM): 1.1 ± 0.05 | fold induction at 48 h, 0.1 µM (CYP3A4 mRNA; Lot 348B, 0.1 μM): 1.2 ± 0.081 | fold induction at 48 h, 1 µM (CYP3A4 mRNA; Lot 348B, 1 μM): 1.3 ± 0.12 | fold induction at 48 h, 3 µM (CYP3A4 mRNA; Lot 348B, 3 μM): 1.8 ± 0.17 | fold induction at 48 h, 5 µM (CYP3A4 mRNA; Lot 348B, 5 μM): 2 ± 0.27 | fold induction at 48 h, 10 µM (CYP3A4 mRNA; Lot 348B, 10 μM): 1.9 ± 0.13 | fold induction at 48 h, 0.01 µM (CYP3A4 mRNA; Lot 399, 0.01 μM): 1.2 ± 0.2 | fold induction at 48 h, 0.1 µM (CYP3A4 mRNA; Lot 399, 0.1 μM): 1.2 ± 0.11 | fold induction at 48 h, 1 µM (CYP3A4 mRNA; Lot 399, 1 μM): 1.8 ± 0.12 | fold induction at 48 h, 3 µM (CYP3A4 mRNA; Lot 399, 3 μM): 2.6 ± 0.14 | fold induction at 48 h, 5 µM (CYP3A4 mRNA; Lot 399, 5 μM): 2.7 ± 0.4 | fold induction at 48 h, 10 µM (CYP3A4 mRNA; Lot 399, 10 μM): 2.3 ± 0.39 | CYP3A4 activity (CYP3A4; 0.01 to 10 μM): did not increase | Fold of Vehicle Control (CYP3A4 activity, testosterone-6β-hydroxylation) (CYP3A4; hepatocyte Lot 336, 0.01 µM): 0.96 fold | Testosterone-6β- Hydroxylation (CYP3A4; hepatocyte Lot 336, 0.01 µM): 9.1 pmol/min/106 cells | Fold of Vehicle Control (CYP3A4 activity, testosterone-6β-hydroxylation) (CYP3A4; hepatocyte Lot 336, 0.1 µM): 0.80 fold | Testosterone-6β- Hydroxylation (CYP3A4; hepatocyte Lot 336, 0.1 µM): 7.5 pmol/min/106 cells | Fold of Vehicle Control (CYP3A4 activity, testosterone-6β-hydroxylation) (CYP3A4; hepatocyte Lot 336, 1 µM): 0.66 fold | Testosterone-6β- Hydroxylation (CYP3A4; hepatocyte Lot 336, 1 µM): 6.3 pmol/min/106 cells | Fold of Vehicle Control (CYP3A4 activity, testosterone-6β-hydroxylation) (CYP3A4; hepatocyte Lot 336, 3 µM): 0.63 fold | Testosterone-6β- Hydroxylation (CYP3A4; hepatocyte Lot 336, 3 µM): 5.9 pmol/min/106 cells | Fold of Vehicle Control (CYP3A4 activity, testosterone-6β-hydroxylation) (CYP3A4; hepatocyte Lot 336, 5 µM): 0.64 fold | Testosterone-6β- Hydroxylation (CYP3A4; hepatocyte Lot 336, 5 µM): 6.1 pmol/min/106 cells | Fold of Vehicle Control (CYP3A4 activity, testosterone-6β-hydroxylation) (CYP3A4; hepatocyte Lot 336, 10 µM): 0.55 fold | Fold of Vehicle Control (CYP3A4 activity, testosterone-6β-hydroxylation) (CYP3A4; hepatocyte Lot 348B, 0.01 µM): 1.0 fold | Fold of Vehicle Control (CYP3A4 activity, testosterone-6β-hydroxylation) (CYP3A4; hepatocyte Lot 348B, 0.1 µM): 1.0 fold | Fold of Vehicle Control (CYP3A4 activity, testosterone-6β-hydroxylation) (CYP3A4; hepatocyte Lot 348B, 1 µM): 0.70 fold | Fold of Vehicle Control (CYP3A4 activity, testosterone-6β-hydroxylation) (CYP3A4; hepatocyte Lot 348B, 3 µM): 0.56 fold | Fold of Vehicle Control (CYP3A4 activity, testosterone-6β-hydroxylation) (CYP3A4; hepatocyte Lot 348B, 5 µM): 0.56 fold | Fold of Vehicle Control (CYP3A4 activity, testosterone-6β-hydroxylation) (CYP3A4; hepatocyte Lot 348B, 10 µM): 0.49 fold | Fold of Vehicle Control (CYP3A4 activity, testosterone-6β-hydroxylation) (CYP3A4; hepatocyte Lot 399, 0.01 µM): 1.0 fold | Testosterone-6β- Hydroxylation (CYP3A4; hepatocyte Lot 399, 0.01 µM): 58 pmol/min/106 cells | Fold of Vehicle Control (CYP3A4 activity, testosterone-6β-hydroxylation) (CYP3A4; hepatocyte Lot 399, 0.1 µM): 0.89 fold | Testosterone-6β- Hydroxylation (CYP3A4; hepatocyte Lot 399, 0.1 µM): 49 pmol/min/106 cells | Fold of Vehicle Control (CYP3A4 activity, testosterone-6β-hydroxylation) (CYP3A4; hepatocyte Lot 399, 1 µM): 0.45 fold | Testosterone-6β- Hydroxylation (CYP3A4; hepatocyte Lot 399, 1 µM): 25 pmol/min/106 cells | Fold of Vehicle Control (CYP3A4 activity, testosterone-6β-hydroxylation) (CYP3A4; hepatocyte Lot 399, 3 µM): 0.32 fold | Testosterone-6β- Hydroxylation (CYP3A4; hepatocyte Lot 399, 3 µM): 18 pmol/min/106 cells | Fold of Vehicle Control (CYP3A4 activity, testosterone-6β-hydroxylation) (CYP3A4; hepatocyte Lot 399, 5 µM): 0.30 fold | Testosterone-6β- Hydroxylation (CYP3A4; hepatocyte Lot 399, 5 µM): 16 pmol/min/106 cells | Fold of Vehicle Control (CYP3A4 activity, testosterone-6β-hydroxylation) (CYP3A4; hepatocyte Lot 399, 10 µM): 0.23 fold | Testosterone-6β- Hydroxylation (CYP3A4; hepatocyte Lot 399, 10 µM): 13 pmol/min/106 cells | red lysosomal stain signal / blue nuclear stain signal over solvent control (HepG2 cells [1]): No significant increase in red lysosomal stain signal or decrease in blue nuclear stain signal | decrease in HepG2 cell viability compared with the solvent control (MTT) (HepG2 cells [2]): 40–50% | agonist and antagonist effects for most of the targets (24 receptor targets): did not exhibit agonist and antagonist effects | Kd (CHEK2; [7]): > 10 µM | remaining binding at 1 µM (CHEK2; read-out: %Control): < 35% | remaining binding at 1 µM (CHEK2; read-out: Gene (S-score with % control): CHEK2): 19% | Kd (MARK3; [7]): > 10 µM | remaining binding at 1 µM (MARK3; read-out: %Control): < 35% | remaining binding at 1 µM (MARK3; read-out: Gene (S-score with % control): MARK3): 0% | half-life at 0.5 μM [3]: 1.44 h | half-life at 10 μM [3]: 2.82 h | hepatocyte CLint at 0.5 μM [3]: 16 µL/min/1e6 cells | hepatocyte CLint at 10 μM [3]: 8.2 µL/min/1e6 cells | % remaining Vs T = 0 min (rat hepatocytes; 0.5 μM, 0 min): 100.0% | % remaining Vs T = 0 min (rat hepatocytes; 0.5 μM, 30 min): 85.0% | % remaining Vs T = 0 min (rat hepatocytes; 0.5 μM, 60 min): 55.6% | % remaining Vs T = 0 min (rat hepatocytes; 0.5 μM, 90 min): 42.4% | % remaining Vs T = 0 min (rat hepatocytes; 0.5 μM, 120 min): 42.5% | % remaining Vs T = 0 min (rat hepatocytes; 10 μM, 0 min): 100.0% | % remaining Vs T = 0 min (rat hepatocytes; 10 μM, 30 min): 95.8% | % remaining Vs T = 0 min (rat hepatocytes; 10 μM, 60 min): 92.5% | % remaining Vs T = 0 min (rat hepatocytes; 10 μM, 90 min): 66.7% | % remaining Vs T = 0 min (rat hepatocytes; 10 μM, 120 min): 64.6% | half-life at 0.5 μM [4]: 1.52 h | half-life at 10 μM [4]: 5.78 h | hepatocyte CLint at 0.5 μM [4]: 15.2 µL/min/1e6 cells | hepatocyte CLint at 10 μM [4]: 4 µL/min/1e6 cells | % remaining Vs T = 0 min (dog hepatocytes; 0.5 μM, 0 min): 100.0% | % remaining Vs T = 0 min (dog hepatocytes; 0.5 μM, 30 min): 71.2% | % remaining Vs T = 0 min (dog hepatocytes; 0.5 μM, 60 min): 61.2% | % remaining Vs T = 0 min (dog hepatocytes; 0.5 μM, 90 min): 45.4% | % remaining Vs T = 0 min (dog hepatocytes; 0.5 μM, 120 min): 40.1% | % remaining Vs T = 0 min (dog hepatocytes; 10 μM, 0 min): 100.0% | % remaining Vs T = 0 min (dog hepatocytes; 10 μM, 30 min): 85.3% | % remaining Vs T = 0 min (dog hepatocytes; 10 μM, 60 min): 85.5% | % remaining Vs T = 0 min (dog hepatocytes; 10 μM, 90 min): 80.3% | % remaining Vs T = 0 min (dog hepatocytes; 10 μM, 120 min): 76.4% | % remaining Vs T = 0 min ([5]; 0.5 μM, 0 min): 100.0% | % remaining Vs T = 0 min ([5]; 0.5 μM, 30 min): 86.2% | % remaining Vs T = 0 min ([5]; 0.5 μM, 60 min): 81.6% | % remaining Vs T = 0 min ([5]; 0.5 μM, 90 min): 79.9% | % remaining Vs T = 0 min ([5]; 0.5 μM, 120 min): 78.4% | % remaining Vs T = 0 min ([5]; 10 μM, 0 min): 100.0% | % remaining Vs T = 0 min ([5]; 10 μM, 30 min): 92.9% | % remaining Vs T = 0 min ([5]; 10 μM, 60 min): 87.5% | % remaining Vs T = 0 min ([5]; 10 μM, 90 min): 87.9% | % remaining Vs T = 0 min ([5]; 10 μM, 120 min): 77.3% | remaining at 0 h, 1 μM [6, 8]: 100% | remaining at 0 h, 10 μM [6, 8]: 100% | remaining at 2 h, 1 μM [6, 8]: 96.7% | remaining at 2 h, 10 μM [6, 8]: 95.1% | remaining at 0 h, 1 μM ([6]; liver microsomes): 100% | remaining at 0 h, 10 μM ([6]; liver microsomes): 100% | remaining at 0.5 h, 1 μM ([6]; liver microsomes): 41.1% | remaining at 0.5 h, 10 μM ([6]; liver microsomes): 69.7% | remaining at 1 h, 1 μM ([6]; liver microsomes): 25.9% | remaining at 1 h, 10 μM ([6]; liver microsomes): 60.1% | remaining at 1.5 h, 1 μM ([6]; liver microsomes): 22.3% | remaining at 1.5 h, 10 μM ([6]; liver microsomes): 55.5% | remaining at 2 h, 1 μM ([6]; liver microsomes): 16.4% | remaining at 2 h, 10 μM ([6]; liver microsomes): 48.9% | inhibition at 10 µM (hERG; 10 μM): 54.6% | inhibition at 100 µM (hERG; 100 μM): 82.3% | inhibition at 10 µM (hERG; ≥10 μM): 54 to 82%

From publication PMC11649115, “In vitro safety evaluation of dopamine D3R antagonist, R-VK4-116, as a potential medication for the treatment of opioid use disorder” (PLOS ONE, 2024)
